What was measured:
Assay type in all cases: in vivo
[1] = test system: beet armyworm (BAW; Spodoptera exigua: Lepidoptera); experiment: Insecticidal test for beet armyworm, 128-well diet tray assay
Procedure: Insecticidal Test for Beet Armyworm (Spodoptera exigua)
(§1) Bioassays on beet armyworm (BAW; Spodoptera exigua: Lepidoptera) were conducted using a 128-well diet tray assay. Three to five second instar BAW larvae were placed in each well (3 mL) of the diet tray that had been previously filled with 1 mL of artificial diet to which 50 μg/cm^2 of the test compound (dissolved in 50 μL of 90:10 acetone-water mixture) had been applied (to each of eight wells) and then allowed to dry. Trays were covered with a clear self-adhesive cover, and held at 25° C., 14:10 light-dark for six days. Percent mortality was recorded for the larvae in each well; activity in the eight wells was then averaged.

[2] = test system: green peach aphid (Myzus persicae); experiment: Insecticidal test for green peach aphid in foliar spray assay on cabbage seedlings
Procedure: Insecticidal Test for Green Peach Aphid (Myzus persicae) in Foliar Spray Assay
Cabbage seedlings grown in 3-inch pots, with 2-3 small (3-5 cm) true leaves, were used as test substrate. The seedlings were infested with 20-50 green peach aphids (wingless adult and nymph) one day prior to chemical application. Four pots with individual seedlings were used for each treatment. Compounds (2 mg) were dissolved in 2 mL of acetone/methanol (1:1) solvent, forming stock solutions of 1000 ppm. The stock solutions were diluted 5× with 0.025% Tween 20 in H2O to obtain the solution at 200 ppm. A hand-held Devilbiss sprayer was used for spraying a solution to both sides of cabbage leaves until runoff. Reference plants (solvent check) were sprayed with the diluent only. Treated plants were held in a holding room for three days at approximately 25° C. and 40% relative humidity (RH) prior to grading. Evaluation was conducted by counting the number of live aphids per plant under a microscope. Insecticidal activity was measured by using Abbott's correction formula are presented in Table 2: Corrected % Control=100*(X−Y)/X
where • X=No. of live aphids on solvent check plants • Y=No. of live aphids on treated plants

[3] = test system: corn earworm (CEW; Helicoverpa zea: Lepidoptera); experiment: Insecticidal test for corn earworm, 128-well diet tray assay
Procedure: Insecticidal Test for Corn Earworm (Helicoverpa zea)
as §1, with “corn earworm (CEW; Helicoverpa zea:” for “beet armyworm (BAW; Spodoptera exigua:”, “CEW” for “BAW”

Compound | % Mortality BAW 50 μg/cm^2 [1] | % Mortality GPA 200 ppm [2] | % Mortality CEW 50 μg/cm^2 [3]
CC(C)(C)OC(=O)Nc1ccc(-c2ncn(-c3ccc(OC(F)(F)C(F)(F)F)cc3)n2)cc1 [Compound 1, {4-[1-(4-pentafluoroethyloxyphenyl)-1H-[1,2,4]triazol-3-yl]-phenyl}-carbamic acid tert-butyl ester] | A (50-100) | B (Less than 80) | A (50-100)
CO[C@@H]1O[C@@H](C)[C@H](OC)[C@@H](OC(=O)Nc2ccc(-c3ncn(-c4ccc(OC(F)(F)F)cc4)n3)cc2)[C@H]1OC [Compound 2] | A (50-100) | B (Less than 80) | B (Less than 50)
CCOc1cnc(C(C)(C)OC(=O)Nc2ccc(-c3ncn(-c4ccc(OC(F)(F)F)cc4)n3)cc2)nc1 [Compound 3, {4-[1-(4-trifluoromethoxyphenyl)-1H-[1,2,4]triazol-3-yl]-phenyl}-carbamic acid 1-(5-ethoxy-pyrimidin-2-yl)-1-methyl-ethyl ester] | A (50-100) | B (Less than 80) | B (Less than 50)
CC1(OC(=O)Nc2ccc(-c3ncn(-c4ccc(OC(F)(F)F)cc4)n3)cc2)CCCCC1 [Compound 4] | B (Less than 50) | B (Less than 80) | B (Less than 50)
COCC(C)(C)OC(=O)Nc1ccc(-c2ncn(-c3ccc(OC(F)(F)F)cc3)n2)cc1 [Compound 5] | A (50-100) | B (Less than 80) | A (50-100)
CCCC(C)(C)OC(=O)Nc1ccc(-c2ncn(-c3ccc(OC(F)(F)F)cc3)n2)cc1 [Compound 6] | A (50-100) | B (Less than 80) | B (Less than 50)
CCOC(=O)c1csc(C(=O)C(C)(C)OC(=O)Nc2ccc(-c3ncn(-c4ccc(OC(F)(F)F)cc4)n3)cc2)n1 [Compound 7] | B (Less than 50) | B (Less than 80) | B (Less than 50)
CC(C)(OC(=O)Nc1ccc(-c2ncn(-c3ccc(OC(F)(F)F)cc3)n2)cc1)C(F)(F)F [Compound 8] | A (50-100) | B (Less than 80) | A (50-100)
CCCCC(C)OC(=O)Nc1ccc(-c2ncn(-c3ccc(OC(F)(F)F)cc3)n2)cc1 (stereo not drawn) [Compound 9, {4-[1-(4-trifluoromethoxyphenyl)-1H-[1,2,4]triazol-3-yl]-phenyl}-carbamic acid 1-methyl-pentyl ester] | A (50-100) | B (Less than 80) | A (50-100)
CC(C)OC(=O)Nc1ccc(-c2ncn(-c3ccc(OC(F)(F)C(F)(F)F)cc3)n2)cc1 [Compound 10] | A (50-100) | B (Less than 80) | B (Less than 50)
CC(C)(Cc1ccccc1)OC(=O)Nc1ccc(-c2ncn(-c3ccc(OC(F)(F)F)cc3)n2)cc1 [Compound 11, {4-[1-(4-trifluoromethoxyphenyl)-1H-[1,2,4]triazol-3-yl]-phenyl}-carbamic acid 1,1-dimethyl-2-phenyl-ethyl ester] | A (50-100) | B (Less than 80) | A (50-100)
C#CC(C)(C)OC(=O)Nc1ccc(-c2ncn(-c3ccc(OC(F)(F)F)cc3)n2)cc1 [Compound 12, {4-[1-(4-trifluoromethoxyphenyl)-1H-[1,2,4]triazol-3-yl]-phenyl}-carbamic acid 1,1-dimethyl-prop-2-ynyl ester] | A (50-100) | B (Less than 80) | A (50-100)
C#CC(C)(C)OC(=O)Nc1ccc(-c2ncn(-c3ccc(C(F)(F)F)cc3)n2)cc1 [Compound 13, {4-[1-(4-trifluoromethylphenyl)-1H-[1,2,4]triazol-3-yl]-phenyl}-carbamic acid 1,1-dimethyl-prop-2-ynyl ester] | A (50-100) | B (Less than 80) | A (50-100)
CC(C)(C#N)OC(=O)Nc1ccc(-c2ncn(-c3ccc(OC(F)(F)F)cc3)n2)cc1 [Compound 14, {4-[1-(4-trifluoromethoxyphenyl)-1H-[1,2,4]triazol-3-yl]-phenyl}-carbamic acid cyano-dimethyl-methyl ester] | B (Less than 50) | – | B (Less than 50)
CC(OC(=O)Nc1ccc(-c2ncn(-c3ccc(OC(F)(F)F)cc3)n2)cc1)C1CC1 (stereo not drawn) [Compound 15, 4 {4-[1-(4-trifluoromethoxyphenyl)-1H-[1,2,4]triazol-3-yl]-phenyl}-carbamic acid 1-cyclopropyl-ethyl ester] | A (50-100) | B (Less than 80) | A (50-100)
CC(OC(=O)Nc1ccc(-c2ncn(-c3ccc(OC(F)(F)F)cc3)n2)cc1)C1CCCCC1 (stereo not drawn) [Compound 16] | B (Less than 50) | B (Less than 80) | B (Less than 50)
CCOC(=O)CC(C)OC(=O)Nc1ccc(-c2ncn(-c3ccc(OC(F)(F)F)cc3)n2)cc1 (stereo not drawn) [Compound 17] | B (Less than 50) | B (Less than 80) | A (50-100)
COCCOCC(C)(C)OC(=O)Nc1ccc(-c2ncn(-c3ccc(OC(F)(F)F)cc3)n2)cc1 [Compound 18] | A (50-100) | B (Less than 80) | A (50-100)
C=CC(C)(C)OC(=O)Nc1ccc(-c2ncn(-c3ccc(OC(F)(F)F)cc3)n2)cc1 [Compound 19] | A (50-100) | B (Less than 80) | A (50-100)
CCOC(=O)C(C)(C)OC(=O)Nc1ccc(-c2ncn(-c3ccc(OC(F)(F)F)cc3)n2)cc1 [Compound 20] | A (50-100) | B (Less than 80) | A (50-100)
CC(C)(OC(=O)Nc1ccc(-c2ncn(-c3ccc(OC(F)(F)F)cc3)n2)cc1)c1ccccc1 [Compound 21] | A (50-100) | B (Less than 80) | A (50-100)
COc1ccc(CC(C)OC(=O)Nc2ccc(-c3ncn(-c4ccc(OC(F)(F)F)cc4)n3)cc2)cc1 (stereo not drawn) [Compound 22] | A (50-100) | B (Less than 80) | A (50-100)
CCCCC(OC(=O)Nc1ccc(-c2ncn(-c3ccc(OC(F)(F)F)cc3)n2)cc1)C(=O)OCC (stereo not drawn) [Compound 26, 2-{4-[1-(4-trifluoromethoxyphenyl)-1H-[1,2,4]triazol-3-yl]-phenylcarbamoyloxy}-hexanoic acid ethyl ester] | A (50-100) | – | A (50-100)
C[C@H](OC(=O)Nc1ccc(-c2ncn(-c3ccc(OC(F)(F)F)cc3)n2)cc1)c1ccccc1 [Compound 60] | A (50-100) | – | A (50-100)
C[C@@H](OC(=O)Nc1ccc(-c2ncn(-c3ccc(OC(F)(F)F)cc3)n2)cc1)c1ccccc1 [Compound 61] | A (50-100) | – | A (50-100)
O=C(Nc1ccc(-c2ncn(-c3ccc(OC(F)(F)F)cc3)n2)cc1)Oc1cccc(C(F)(F)F)c1 [Compound 125] | – | B (Less than 80) | –
O=C(Nc1ccc(-c2ncn(-c3ccc(OC(F)(F)F)cc3)n2)cc1)Oc1ccc(C(F)(F)F)cc1 [Compound 126] | – | B (Less than 80) | –
O=C(Nc1ccc(-c2ncn(-c3ccc(OC(F)(F)F)cc3)n2)cc1)Oc1ccc(F)cc1 [Compound 127] | – | B (Less than 80) | –
CN(C(=O)OC(C)(C)C)c1ccc(-c2ncn(-c3ccc(OC(F)(F)F)cc3)n2)cc1 [Compound 131, tert-butyl methyl(4-(1-(4-(trifluoromethoxy)phenyl)-1H-1,2,4-triazol-3-yl)phenyl)carbamate] | – | B (Less than 80) | –

From US8674109B2, “Pesticidal compositions” (Dow AgroSciences, LLC., priority 2009, dated 2014)
